Here are results for 1 compound from PMC4966929, “Two Distinct Cardiolipin Synthases Operate in Agrobacterium tumefaciens” (PLoS ONE, 2016).

SMILES strings stand for the structures.

This experiment deals with T1, Cls2 (Agrobacterium fabrum, UniProt A9CHR9).
T1 construct: gene cls; native full-length enzyme in A. tumefaciens crude extract (wild type and delta-cls1 lysates, assigned by loss in delta-cls2); about 54 kDa, not purified, no tag
T1 sequence (A9CHR9 1-486): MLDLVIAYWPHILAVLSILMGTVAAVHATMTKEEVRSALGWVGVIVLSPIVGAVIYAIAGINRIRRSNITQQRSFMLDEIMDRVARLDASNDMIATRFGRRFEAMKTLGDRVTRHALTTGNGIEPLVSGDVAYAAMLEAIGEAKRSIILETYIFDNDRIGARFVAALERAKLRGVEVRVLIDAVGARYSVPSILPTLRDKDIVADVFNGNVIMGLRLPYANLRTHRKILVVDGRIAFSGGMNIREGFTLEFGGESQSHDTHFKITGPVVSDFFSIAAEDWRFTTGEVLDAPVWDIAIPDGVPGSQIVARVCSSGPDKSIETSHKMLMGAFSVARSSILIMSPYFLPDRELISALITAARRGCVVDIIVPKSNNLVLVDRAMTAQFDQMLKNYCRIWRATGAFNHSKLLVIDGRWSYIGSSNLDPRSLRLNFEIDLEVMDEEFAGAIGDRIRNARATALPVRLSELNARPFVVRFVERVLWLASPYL
The experiment in a line: CL formation in crude extract of wild type and cls deletion strains, lipid extraction, 1D-TLC. Format: biochemical. Particulars: 0.4 mM lipid in micellar form, 0.02% Triton X-100, 50 mM Tris/HCl, 50 mM NaCl, pH 8, 30 C, 12 h; 300 ug total protein.

As to `CCCCCCCC/C=C\CCCCCCCC(=O)OC[C@H](COP(=O)(O)OCC(O)CO)OC(=O)CCCCCCC/C=C\CCCCCCCC` (mixture of isomers) [PG, 1,2-dioleoyl-sn-glycero-3-phospho-rac-(1-glycerol)], the “CL formation in crude extract of wild type and cls deletion strains, lipid extra” value was “suggesting that PG-dependent CL accumulation is mediated by Cls2”.
